Assay results taken from US10508120B2, “TYK2 inhibitors and uses thereof” (Nimbus Lakshmi, Inc., priority 2017, dated 2019).

Columns and labels:
[1] = molecular target: JAK2 kinase domain (JH1) (Homo sapiens (Human), UniProt O60674); test: JAK2 Radioactive Kinase Assay; assay type: biochemical; details: 10 μM compound, 10 μM ATP; for inhibition at 10 µM: read-out: JAK2 JH1% Inhibition @ 10 μM
Method in brief: (§1)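 Compounds were tested at a single concentration of 10 μM in a radiometric kinase format against each isolated kinase domain. Activity is reported as percent inhibition at that concentration.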

[2] = molecular target: Tyk2 kinase domain (DH1) (Homo sapiens (Human), UniProt P29597); test: Tyk2 Radioactive Kinase Assay; assay type: biochemical; details: 10 μM compound, 10 μM ATP; for inhibition at 10 µM: read-out: Tyk2 JH1% Inhibition @ 10 μM
Method in brief: as §1

[3] = molecular target: human TYK2 (JH2domain-pseudokinase) (Homo sapiens (Human), UniProt P29597); test: TYK2 JH2 Domain Binding Assay (KINOMEscan)
Method in brief: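 The construct was human TYK2 G556–D888 fused to the NFkB DNA-binding domain and expressed in HEK293 cells; unpurified extract was incubated with compound and liganded beads for 1 hour at room temperature.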

Sequence of human TYK2 (JH2domain-pseudokinase) (P29597 556-888): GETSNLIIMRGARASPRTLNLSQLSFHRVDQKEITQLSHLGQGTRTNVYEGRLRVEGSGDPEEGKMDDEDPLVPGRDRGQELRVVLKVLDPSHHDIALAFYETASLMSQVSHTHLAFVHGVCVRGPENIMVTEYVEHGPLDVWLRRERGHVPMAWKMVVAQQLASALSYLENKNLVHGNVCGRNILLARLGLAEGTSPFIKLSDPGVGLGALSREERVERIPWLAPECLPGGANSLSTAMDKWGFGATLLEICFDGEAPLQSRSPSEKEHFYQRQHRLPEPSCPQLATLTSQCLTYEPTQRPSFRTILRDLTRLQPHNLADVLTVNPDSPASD
Sequence of Tyk2 kinase domain (DH1) (P29597 897-1176): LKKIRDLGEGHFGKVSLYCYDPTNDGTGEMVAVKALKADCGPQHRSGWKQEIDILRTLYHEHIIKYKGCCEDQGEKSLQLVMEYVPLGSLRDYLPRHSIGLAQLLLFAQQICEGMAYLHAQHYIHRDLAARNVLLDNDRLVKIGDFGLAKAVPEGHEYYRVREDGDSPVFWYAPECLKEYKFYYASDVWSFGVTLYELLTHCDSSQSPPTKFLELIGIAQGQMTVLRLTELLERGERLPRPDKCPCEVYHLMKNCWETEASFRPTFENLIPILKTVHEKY
Sequence of JAK2 kinase domain (JH1) (O60674 849-1124): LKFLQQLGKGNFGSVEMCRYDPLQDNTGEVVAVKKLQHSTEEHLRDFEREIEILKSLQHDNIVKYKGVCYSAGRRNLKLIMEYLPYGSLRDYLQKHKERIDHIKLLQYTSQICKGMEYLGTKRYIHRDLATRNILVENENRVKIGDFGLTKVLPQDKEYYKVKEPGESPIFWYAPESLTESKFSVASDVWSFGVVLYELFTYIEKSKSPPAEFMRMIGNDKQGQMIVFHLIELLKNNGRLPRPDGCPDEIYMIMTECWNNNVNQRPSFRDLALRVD

CNc1cc(Nc2cccn(-c3cccc(F)c3)c2=O)nc2c(C(=O)NCC(C)CO)cnn12 (stereo not drawn) [I-947]
inhibition at 10 µM [1]: < 50% | inhibition at 10 µM [2]: < 50% | Kd [3]: < 0.2 nM

CNc1cc(Nc2cccc(-c3cn(C)nc3F)n2)nc2c(C(=O)N[C@H]3CC[C@H]3O)cnn12 [I-948]
inhibition at 10 µM [1]: < 50% | inhibition at 10 µM [2]: < 50% | Kd [3]: < 0.2 nM

CNc1cc(Nc2cccc(-c3cn(C)nc3F)n2)nc2c(C(=O)N[C@@H]3CC[C@@H]3O)cnn12 [I-949]
inhibition at 10 µM [1]: < 50% | inhibition at 10 µM [2]: < 50% | Kd [3]: 1 to 10 nM

CNc1cc(Nc2cccn([C@H]3CCC[C@@H](OC)C3)c2=O)nc2c(C(=O)NCC(C)(C)CO)cnn12 [I-950]
inhibition at 10 µM [1]: < 50% | inhibition at 10 µM [2]: < 50% | Kd [3]: 0.2 to 1 nM

CNc1cc(-c2cn(CCN3CCN(C)CC3)c3ncccc23)nc2c(C(=O)N[C@@H]3CC[C@H]3OC)cnn12 [I-953]
inhibition at 10 µM [1]: < 50% | inhibition at 10 µM [2]: < 50% | Kd [3]: 0.2 to 1 nM

CNc1cc(Nc2cccn([C@H]3CC[C@H]3O)c2=O)nc2c(C(=O)NC3CC3)cnn12 [I-956]
JAK2 JH1% Inhibition @ 10 μM [1]: A (percent inhibition at 10 μM lower than 50) | Tyk2 JH1% Inhibition @ 10 μM [2]: A (percent inhibition at 10 μM lower than 50) | Kd [3]: < 0.2 nM

CNc1cc(Nc2cccn([C@@H]3CCC[C@@H]3O)c2=O)nc2c(C(=O)NC3CC3)cnn12 [I-964]
inhibition at 10 µM [1]: < 50% | inhibition at 10 µM [2]: < 50% | Kd [3]: 1 to 10 nM

CNc1cc(Nc2cccn([C@@H]3CCC[C@@H]3O)c2=O)nc2c(C(=O)N[C@@H]3C[C@@H]3F)cnn12 [I-966]
inhibition at 10 µM [1]: < 50% | inhibition at 10 µM [2]: < 50% | Kd [3]: 0.2 to 1 nM

CNc1cc(Nc2cccn(-c3cncc(F)c3)c2=O)nc2c(C(=O)NC3CC3)cnn12 [I-967]
inhibition at 10 µM [1]: < 50% | inhibition at 10 µM [2]: < 50% | Kd [3]: < 0.2 nM

CNc1cc(Nc2cccn(-c3cncc(F)c3)c2=O)nc2c(C(=O)N[C@@H]3C[C@@H]3F)cnn12 [I-968]
inhibition at 10 µM [1]: < 50% | inhibition at 10 µM [2]: < 50% | Kd [3]: < 0.2 nM

CNc1cc(Nc2cccn(-c3ccccn3)c2=O)nc2c(C(=O)N[C@@H]3CC[C@H]3O)cnn12 [I-972]
inhibition at 10 µM [1]: < 50% | inhibition at 10 µM [2]: < 50% | Kd [3]: 0.2 to 1 nM

CNc1cc(Nc2cccn(C(C)C)c2=O)nc2c(C(=O)N[C@@H]3CC[C@@H]3O)cnn12 [I-978]
inhibition at 10 µM [1]: < 50% | inhibition at 10 µM [2]: < 50% | Kd [3]: 0.2 to 1 nM

CNc1cc(Nc2cccn(C(C)C)c2=O)nc2c(C(=O)N[C@H]3CC[C@@H]3O)cnn12 [I-982]
inhibition at 10 µM [1]: < 50% | inhibition at 10 µM [2]: < 50% | Kd [3]: 0.2 to 1 nM

CNc1cc(Nc2cccnc2OC2CC2)nc2c(-c3cn(C(C)C)nn3)cnn12 [I-985, N5-(2-cyclopropoxypyridin-3-yl)-3-(1-isopropyl-1H-1,2,3-triazol-4-yl)-N7-methylpyrazolo[1,5-a]pyrimidine-5,7-diamine]
inhibition at 10 µM [1]: < 50% | inhibition at 10 µM [2]: < 50% | Kd [3]: 0.2 to 1 nM

CNc1cc(Nc2cccn([C@H]3CCN(CCC#N)C3)c2=O)nc2c(C(=O)N[C@@H]3C[C@@H]3F)cnn12 [I-986]
inhibition at 10 µM [1]: < 50% | inhibition at 10 µM [2]: < 50% | Kd [3]: < 0.2 nM

CNc1cc(Nc2cccn([C@@H]3CCN(CCC#N)C3)c2=O)nc2c(C(=O)N[C@@H]3C[C@@H]3F)cnn12 [I-987]
inhibition at 10 µM [1]: < 50% | inhibition at 10 µM [2]: < 50% | Kd [3]: < 0.2 nM

CNc1cc(Nc2cccn([C@@H]3CCCC[C@@H]3OC)c2=O)nc2c(C(=O)NC3CC3)cnn12 [I-989]
inhibition at 10 µM [1]: < 50% | inhibition at 10 µM [2]: < 50% | Kd [3]: > 10 nM

CNc1cc(Nc2cccn([C@@H]3CCCC[C@@H]3OC)c2=O)nc2c(C(=O)NCC(C)(C)CO)cnn12 [I-990]
inhibition at 10 µM [1]: < 50% | inhibition at 10 µM [2]: < 50% | Kd [3]: 1 to 10 nM

CNc1cc(Nc2cccn([C@@H]3CCCC[C@@H]3OC)c2=O)nc2c(C(=O)NCC3(CO)CC3)cnn12 [I-991]
inhibition at 10 µM [1]: < 50% | inhibition at 10 µM [2]: < 50% | Kd [3]: 1 to 10 nM

CNc1cc(Nc2cccn([C@H]3CC[C@@H]3OC)c2=O)nc2c(C(=O)N[C@@H]3C[C@@H]3F)cnn12 [I-997]
JAK2 JH1% Inhibition @ 10 μM [1]: A (percent inhibition at 10 μM lower than 50) | Tyk2 JH1% Inhibition @ 10 μM [2]: A (percent inhibition at 10 μM lower than 50) | Kd [3]: < 0.2 nM

CNc1cc(Nc2cccn([C@H]3CC[C@@H]3O)c2=O)nc2c(C(=O)N[C@@H]3C[C@@H]3F)cnn12 [I-998]
JAK2 JH1% Inhibition @ 10 μM [1]: A (percent inhibition at 10 μM lower than 50) | Tyk2 JH1% Inhibition @ 10 μM [2]: A (percent inhibition at 10 μM lower than 50) | Kd [3]: < 0.2 nM

CNc1cc(Nc2cccn(C3CCCCC3)c2=O)nc2c(C(=O)N[C@H]3CC[C@H]3O)cnn12 [I-1001]
JAK2 JH1% Inhibition @ 10 μM [1]: A (percent inhibition at 10 μM lower than 50) | Tyk2 JH1% Inhibition @ 10 μM [2]: A (percent inhibition at 10 μM lower than 50) | Kd [3]: 1 to 10 nM

CNc1cc(Nc2cccn(C3CCCCC3)c2=O)nc2c(C(=O)N[C@H]3CC[C@@H]3O)cnn12 [I-1003]
inhibition at 10 µM [1]: < 50% | inhibition at 10 µM [2]: < 50% | Kd [3]: 0.2 to 1 nM

CNc1cc(Nc2cccn(-c3cccc(F)c3)c2=O)nc2c(C(=O)N[C@@H]3CC[C@@H]3O)cnn12 [I-1005]
inhibition at 10 µM [1]: < 50% | inhibition at 10 µM [2]: < 50% | Kd [3]: 0.2 to 1 nM

CNc1cc(Nc2cc(Cl)cn(C3CCN(C)CC3)c2=O)nc2c(C(=O)N[C@H]3CC[C@H]3O)cnn12 [I-1006]
inhibition at 10 µM [1]: < 50% | inhibition at 10 µM [2]: < 50% | Kd [3]: < 0.2 nM

CNc1cc(Nc2cc(Cl)cn(C3CCN(C)CC3)c2=O)nc2c(C(=O)N[C@@H]3CC[C@@H]3O)cnn12 [I-1007]
inhibition at 10 µM [1]: < 50% | inhibition at 10 µM [2]: < 50% | Kd [3]: 0.2 to 1 nM

CNc1cc(Nc2cccnc2OC)nc2c(-c3cn(C(C)C)nn3)cnn12 [I-1008, 3-(1-isopropyl-1H-1,2,3-triazol-4-yl)-N5-(2-methoxypyridin-3-yl)-N7-methylpyrazolo[1,5-a]pyrimidine-5,7-diamine]
inhibition at 10 µM [1]: 50 to 70% | inhibition at 10 µM [2]: < 50% | Kd [3]: < 0.2 nM

CNc1cc(Nc2cccn(C3CCCN(CCC#N)C3)c2=O)nc2c(C(=O)NC3CC3)cnn12 (stereo not drawn) [I-1009, 5-((1-(1-(2-cyanoethyl)piperidin-3-yl)-2-oxo-1,2-dihydropyridin-3-yl)amino)-N-cyclopropyl-7-(methylamino)pyrazolo[1,5-a]pyrimidine-3-carboxamide]
inhibition at 10 µM [1]: < 50% | inhibition at 10 µM [2]: < 50% | Kd [3]: 0.2 to 1 nM

CNc1cc(Nc2cccn([C@H]3CCN(CCC#N)C3)c2=O)nc2c(C(=O)NC3CC3)cnn12 [I-1011]
inhibition at 10 µM [1]: < 50% | inhibition at 10 µM [2]: < 50% | Kd [3]: 0.2 to 1 nM

CNc1cc(Nc2cccn([C@@H]3CCN(CCC#N)C3)c2=O)nc2c(C(=O)NC3CC3)cnn12 [I-1012]
inhibition at 10 µM [1]: < 50% | inhibition at 10 µM [2]: < 50% | Kd [3]: 0.2 to 1 nM

CNc1cc(Nc2cccnc2OC)nc2c(C(=O)N[C@H]3CC[C@@]3(C)O)cnn12 [I-1015, N-((1S,2R)-2-hydroxy-2-methylcyclobutyl)-5-((2-methoxypyridin-3-yl)amino)-7-(methylamino)pyrazolo[1,5-a]pyrimidine-3-carboxamide]
inhibition at 10 µM [1]: < 50% | inhibition at 10 µM [2]: < 50% | Kd [3]: 1 to 10 nM

CNc1cc(Nc2cccnc2OC)nc2c(C(=O)N[C@@H]3CC[C@]3(C)O)cnn12 [I-1016, N-((1R,2S)-2-hydroxy-2-methylcyclobutyl)-5-((2-methoxypyridin-3-yl)amino)-7-(methylamino)pyrazolo[1,5-a]pyrimidine-3-carboxamide]
inhibition at 10 µM [1]: < 50% | inhibition at 10 µM [2]: < 50% | Kd [3]: 1 to 10 nM

CNc1cc(Nc2cccn(-c3cnco3)c2=O)nc2c(C(=O)N[C@@H]3CC[C@@H]3O)cnn12 [I-1018]
inhibition at 10 µM [1]: < 50% | inhibition at 10 µM [2]: < 50% | Kd [3]: 1 to 10 nM

CNc1cc(Nc2cccn([C@H]3CC[C@@H]3OC)c2=O)nc2c(C(=O)NC3CC3)cnn12 [I-1019]
inhibition at 10 µM [1]: < 50% | inhibition at 10 µM [2]: < 50% | Kd [3]: 0.2 to 1 nM

CNc1cc(Nc2cccn([C@@H]3CC[C@H]3OC)c2=O)nc2c(C(=O)NC3CC3)cnn12 [I-1020]
inhibition at 10 µM [1]: < 50% | inhibition at 10 µM [2]: < 50% | Kd [3]: 0.2 to 1 nM

CNc1cc(Nc2cccn(-c3cccc(F)c3)c2=O)nc2c(C(=O)N[C@@H]3CC[C@H]3O)cnn12 [I-1023]
inhibition at 10 µM [1]: < 50% | inhibition at 10 µM [2]: < 50% | Kd [3]: < 0.2 nM

CNc1cc(Nc2cccn(-c3cccc(F)c3)c2=O)nc2c(C(=O)N[C@H]3CC[C@@H]3O)cnn12 [I-1024]
inhibition at 10 µM [1]: < 50% | inhibition at 10 µM [2]: < 50% | Kd [3]: < 0.2 nM

CNc1cc(Nc2cccn([C@@H]3CCC[C@@H](OC)C3)c2=O)nc2c(C(=O)NC3CC3)cnn12 [I-1026]
inhibition at 10 µM [1]: < 50% | inhibition at 10 µM [2]: < 50% | Kd [3]: < 0.2 nM

CNc1cc(Nc2cccn([C@@H]3CCC[C@@H](OC)C3)c2=O)nc2c(C(=O)NCC(C)(C)CO)cnn12 [I-1028]
inhibition at 10 µM [1]: < 50% | inhibition at 10 µM [2]: < 50% | Kd [3]: 0.2 to 1 nM

CNc1cc(Nc2cccn([C@H]3CCC[C@H](O)C3)c2=O)nc2c(C(=O)N[C@@H]3C[C@@H]3F)cnn12 [I-1030]
inhibition at 10 µM [1]: < 50% | inhibition at 10 µM [2]: < 50% | Kd [3]: < 0.2 nM

CNc1cc(Nc2cccn(C3CCOCC3)c2=O)nc2c(C(=O)NC[C@H](C)CO)cnn12 [I-1031]
inhibition at 10 µM [1]: < 50% | inhibition at 10 µM [2]: < 50% | Kd [3]: < 0.2 nM

CNc1cc(Nc2cccn(C3CCOCC3)c2=O)nc2c(C(=O)NC[C@@H](C)CO)cnn12 [I-1032]
inhibition at 10 µM [1]: < 50% | inhibition at 10 µM [2]: < 50% | Kd [3]: 0.2 to 1 nM

CNc1cc(Nc2cccn(-c3cccc(F)c3)c2=O)nc2c(C(=O)NC[C@@H](C)CO)cnn12 [I-1033]
inhibition at 10 µM [1]: < 50% | inhibition at 10 µM [2]: < 50% | Kd [3]: < 0.2 nM
